Here are results for one compound from patent publication US11945794B2, “Nuclear transport modulators and uses thereof” (Karyopharm Therapeutics Inc., priority 2013, dated 2024).

Assay [1] has as its system 3T3 cells. In words: MTT cell proliferation assay. In kind it is cell-based. The conditions noted are these: Mus musculus, NIH3T3, approximately 64-72 hours. Put shortly: (§1)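 Cells seeded at 5,000-10,000 per well attached overnight, then received eight compound concentrations from 1 nM to 30 μM. Viability was measured by MTT (about 4 h) with OD read at 490 nm. Percent inhibition versus negative control, mostly from duplicates, was reported as mean±SE.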
A general note: Tetrazolium dyes change colour on reduction, which living cells bring about.

Assay [2] concerns MM1S cells. Description: MTT cell proliferation assay. In kind it is cell-based. To be noted: Homo sapiens, MM1.S, approximately 64-72 hours. Put shortly: as §1
Assay [3] relates to Z138 cells. Description: MTT cell proliferation assay. In kind it is cell-based. To be noted: Homo sapiens, Z-138, approximately 64-72 hours. Put shortly:
as §1

Assay [4] addresses T1, mutant CRM1-Cys528Ser (Homo sapiens, UniProt O14980, C528S).
T1 construct: expressed in transfected cells; host or cells: U2OS (osteosarcoma) cells stably expressing Rev-GFP
In words: Cys 528 mutation assay, Rev-GFP localization. The conditions noted are these: 30 μM, U2OS Rev-GFP cells. In kind it is cell-based. As to the method: (§2) U2OS (osteosarcoma) cells stably expressing GFP-tagged HIV-Rev fused to the cAMP-dependent protein kinase inhibitor (PM) nuclear export signal (Rev-GFP) were transiently transfected with constructs expressing wild-type CRM1 or mutant CRM1-Cys528Ser for 36 hours. The transient transfection efficiency in the experiment was estimated to be 50%.

In assay [5] the target is T2, wild-type CRM1 (Homo sapiens, UniProt O14980).
T2 construct: expressed in transfected cells; host or cells: U2OS (osteosarcoma) cells stably expressing Rev-GFP
Description: Cys 528 mutation assay, Rev-GFP localization. To be noted: 30 μM, 4 hours, U2OS Rev-GFP cells. In kind it is cell-based. As to the method:
as §2

The subject of assay [6] is anti-collagen antibody-induced arthritis. In words: Collagen antibody-induced arthritis (CAIA) mouse model. In kind it is in vivo. As for the experimental part: On study Day 0 (study commencement), all mice were subjected to a 4 mg intravenous injection of ArthritoMAb™ antibody cocktail (MD Biosciences #51306001), followed by an intraperitoneal injection of LPS (50 μg/mouse) on study Day 3. The mice began treatment on Day 6, when the average clinical scores reached 2.
The animals were examined for signs of arthritis on study Day 0 in all paws (front left and right paws, hind left and right paws). The signs of arthritis on study Day 0 served as a baseline for the arthritis clinical score parameter. Arthritic responses were examined daily from Day 3 until Day 8, and on Days 10, 12, 15 and 18 (study termination).
Clinical signs data are presented as means±SEM (standard error of the mean). Treatment groups 2-3 were compared to vehicle group 1 using one-way ANOVA test followed by Tukey post-test. A p value of <0.05 is considered to represent a significant difference.

Assay [7] concerns Hep 3B xenograft. Description: Hep3B hepatocellular carcinoma xenograft model. In kind it is in vivo, mouse. As to the method: Hep 3B cells (ATCC #HTB-8064) hepatocellular carcinoma cells were obtained from ATCC. These cells were grown in DMEM medium supplemented with 10% fetal bovine serum, 1% penicillin and streptomycin. Cells were sub-cultured by dilution at a ratio of 1:4. Hep3B cells were harvested by centrifugation and counted using a hemocytometer. Cells were resuspended in PBS at a concentration of 5×10^7 cells per mL. Cells were placed on ice, and then mixed with an equal volume of Matrigel™ (BD Biosciences CB-40234). This mixture was kept on ice and injected into the left flank of mice in a volume of 0.2 mL, equivalent to 5×10^6 cells per mouse. Thirty-two (32) SCID mice were inoculated subcutaneously in the left flank with 5×10^6 Hep 3B cells. Treatment was initiated when the tumors reached a mean volume of 103.7 mm^3 (standard deviation±30 mm^3, range 17-183 mm^3). Mice were allocated to four (4) groups of eight (8) mice such that mean tumor volume in each group was within the range of 95 to 104 mm^3. […] With the exception of doxorubicin (which was given IP), all compounds were given by oral gavage. […] Animal weights and conditions were recorded daily, and tumors were measured on Mondays, Wednesdays and Fridays.

The test system of assay [8] is C6. Description: MTT assay panel. The conditions noted are these: Rattus norvegicus; C6 cells, 72 hours. Format: cell-based. The essentials:
(§3)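 MTT-type viability; cells seeded day 1 at varying densities; AQueous One reagent added; absorbance read at OD 495.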

The subject of assay [9] is Calu-3. Description: MTT assay panel. Format: cell-based. To be noted: Homo sapiens; Calu-3 cells, 72 hours. The essentials: as §3
The subject of assay [10] is DB. In words: MTT assay panel. Format: cell-based. To be noted: Homo sapiens; DB cells, 72 hours. Put shortly:
as §3

Assay [11] deals with HPAC. In words: MTT assay panel. To be noted: Homo sapiens; HPAC cells, 72 hours. In kind it is cell-based. The essentials: as §3
In assay [12] the test system is MCF7. Description: MTT assay panel. The conditions noted are these: Homo sapiens; MCF7 cells, 72 hours. In kind it is cell-based. The essentials: as §3
Assay [13] concerns MM1R. Description: MTT assay panel. In kind it is cell-based. To be noted: MM.1R; MM1R cells, 72 hours. The essentials:
as §3

Assay [14] has as its system SK-CO-1. Description: MTT assay panel. In kind it is cell-based. The conditions noted are these: Homo sapiens; SK-CO-1 cells, 72 hours. Put shortly: as §3

T2 sequence (O14980 whole entry, species assumed): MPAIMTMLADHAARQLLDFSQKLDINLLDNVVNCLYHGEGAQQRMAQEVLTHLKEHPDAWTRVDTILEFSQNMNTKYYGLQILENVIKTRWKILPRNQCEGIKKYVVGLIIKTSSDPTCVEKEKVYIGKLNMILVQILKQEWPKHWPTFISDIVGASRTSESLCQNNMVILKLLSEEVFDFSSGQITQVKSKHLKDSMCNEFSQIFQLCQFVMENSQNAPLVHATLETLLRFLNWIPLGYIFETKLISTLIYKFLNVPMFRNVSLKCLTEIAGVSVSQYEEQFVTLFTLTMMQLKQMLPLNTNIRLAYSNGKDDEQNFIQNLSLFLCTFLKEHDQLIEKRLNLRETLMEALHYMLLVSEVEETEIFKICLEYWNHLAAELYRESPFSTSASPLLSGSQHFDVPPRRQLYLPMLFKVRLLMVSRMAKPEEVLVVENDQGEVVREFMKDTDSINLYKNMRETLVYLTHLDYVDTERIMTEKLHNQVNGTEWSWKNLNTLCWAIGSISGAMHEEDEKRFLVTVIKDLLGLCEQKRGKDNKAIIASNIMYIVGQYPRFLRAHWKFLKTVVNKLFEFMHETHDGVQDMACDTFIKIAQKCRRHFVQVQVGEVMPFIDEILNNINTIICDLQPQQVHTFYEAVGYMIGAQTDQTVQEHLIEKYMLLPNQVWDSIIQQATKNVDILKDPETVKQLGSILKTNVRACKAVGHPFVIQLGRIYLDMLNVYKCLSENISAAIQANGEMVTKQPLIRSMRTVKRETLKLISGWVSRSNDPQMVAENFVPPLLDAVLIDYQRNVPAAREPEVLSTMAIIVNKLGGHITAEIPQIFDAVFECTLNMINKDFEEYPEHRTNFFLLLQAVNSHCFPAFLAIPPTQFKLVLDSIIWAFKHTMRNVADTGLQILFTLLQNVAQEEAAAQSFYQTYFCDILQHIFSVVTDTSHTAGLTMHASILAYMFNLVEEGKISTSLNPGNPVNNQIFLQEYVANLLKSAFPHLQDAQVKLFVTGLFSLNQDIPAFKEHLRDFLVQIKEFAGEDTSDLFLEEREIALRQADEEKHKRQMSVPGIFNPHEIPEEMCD
T1 sequence (O14980 whole entry C528S): as the sequence (O14980 whole entry, species assumed) above, with C528S counted along it

For orientation: IC50 means the concentration that inhibits the measured activity by half. The low end stands for greater potency in that assay, the high end for weaker potency in that assay. For `NC(=O)/C(=C/n1cnc(-c2cc(C(F)(F)F)cc(C(F)(F)F)c2)n1)c1cncnc1` [Compound 124, (E)-3-(3-(3,5-bis(trifluoromethyl)phenyl)-1H-1,2,4-triazol-1-yl)-2-(pyrimidin-5-yl)acrylamide], the IC50 was 5000 to 30000 nM in assay [1]; < 100 nM in assay [2]; < 100 nM in assay [3]; 150 nM in assay [8]; 1380 nM in assay [9]; 60 nM in [10]. For the same compound, the IC50 worked out at 10000 nM in [11], 680 nM in assay [12], 8 nM in [13] and 430 nM in [14]. Also, in assay [4], the “Rev-GFP localization, mutant CRM1-Cys528Ser co-expressed” value is given as “did not induce nuclear localization of Rev-GFP”. For the same compound, the “Rev-GFP localization, wild-type CRM1 co-expressed” value in [5] is “Rev-GFP was localized to the cell nucleus and nucleolus”. The “percentage of animals that showed clinical signs of arthritis” value in assay [6] (20 mg/kg PO twice a week, study Day 6 (start of treatment)) is 78%; in [6] (20 mg/kg PO twice a week, study Day 18), 22%; in [6] (40 mg/kg PO twice a week, study Day 6 (start of treatment)), 88%; in assay [6] (40 mg/kg PO twice a week, study Day 18), 13%. Further, the “mean clinical score for all paws (arthritis scores)” value in assay [6] (20 mg/kg or 40 mg/kg PO, compared to vehicle) is recorded as “reduced arthritis scores”. Also, the mean tumor volume result in assay [7] (5 or 15 mg/kg PO daily, SCID mice, compared to vehicle) is recorded as “mean tumor volume was reduced”. Further, the “mean tumor volume compared with standard of care” value in assay [7] (particularly 15 mg/kg PO daily, versus doxorubicin) is reported as “compared favorably”.
